Laboratory results: patent publication US4421912A, “Cephalosporin derivatives” (Takeda Chemical Industries, Ltd., priority 1973, dated 1983)
Values after ≈ are worked out from the molar mass of the structure shown. Like-named read-outs stand apart in the source and are kept apart here.

Tests used:
P. vulgaris IFO 3988 = assay: Antibacterial spectra, agar dilution method; type: cell-based; conditions: Proteus vulgaris
Excerpt: (§1) |(mcg./ml., agar dilution method)

E. coli T-7 = assay: Antibacterial spectra, agar dilution method; type: cell-based; conditions: Escherichia coli
Excerpt: as §1

K. pneumoniae DT = assay: Antibacterial spectra, agar dilution method; type: cell-based; conditions: Klebsiella pneumoniae
P. vulgaris Eb-57 = assay: Antibacterial spectra, agar dilution method; type: cell-based; conditions: Proteus vulgaris
Excerpt: |(mcg/ml., agar dilution method)

E. coli 0-111 = assay: Antibacterial spectra, agar dilution method; type: cell-based
Excerpt: (§2) (mcg/ml., agar dilution method)
as §2
(§3) (mcg/ml, agar dilution method)
(§4) (mcg./ml., agar dilution method)

S. aureus 209P = assay: Antibacterial spectra, agar dilution method; type: cell-based; conditions: Staphylococcus aureus
Excerpt: as §2, §2, §3, §4

S. aureus 1840 = assay: Antibacterial spectra, agar dilution method; type: cell-based
Excerpt: as §2, §2, §3, §4

E. coli NIHJ JC-2 = assay: Antibacterial spectra, agar dilution method; type: cell-based; conditions: Escherichia coli
Excerpt: as §2, §2, §3, §4

P. morganii Eb53 = assay: Antibacterial spectra, agar dilution method; type: cell-based; conditions: for MIC: Morganella morganii
Excerpt: as §3, §4

P. vulgaris Eb-58 = assay: Antibacterial spectra, agar dilution method; type: cell-based; conditions: Proteus vulgaris, EB58, tables in Examples 13 and 16
Excerpt: as §2, §3

Escherichia coli 0111 = assay: Protective Effect on Infected Mice; type: in vivo; conditions: Escherichia coli, 0111, sc, 168 h, male ICR/SLC mice, i.p. E. coli 0111, single subcutaneous dose immediately after challenge, 7 days
Excerpt: Protective Effect (ED50 * , mg/kg) on Infected Mice
*Test animals: male mice (ICR/SLC) 5 mice per group per single dose
Infection: intraperitoneally with Escherichia coli 0111
Administration: a single subcutaneous dose immediately after challenge
Observation period: 7 days
*Test animals: male mice (ICR/SLC) 5 mice per group single dose

[1] = IFO3988, P. vulgaris IFO 3988, agar dilution method, Table 11, read-out: Antibacterial spectra
[2] = T7, E. coli T-7, agar dilution method, Table 11, read-out: Antibacterial spectra
[3] = EB57, P. vulgaris Eb-57, agar dilution method, table in Example 10, read-out: Antibacterial spectra
[4] = Escherichia coli, 0111, E. coli 0-111, Table 11
[5] = Escherichia coli, 0111, E. coli 0-111, tables in the Examples
[6] = 209P, read-out: Antibacterial spectra, S. aureus 209P, Table 11
[7] = S. aureus 209P, tables in the Examples, read-out: Antibacterial spectra
[8] = Staphylococcus aureus, 1840, read-out: Antibacterial spectra, S. aureus 1840, Table 11
[9] = Staphylococcus aureus, 1840, read-out: Antibacterial spectra, S. aureus 1840, tables in the Examples
[10] = NIHJJC2, read-out: Antibacterial spectra, E. coli NIHJ JC-2, Table 11
[11] = NIHJJC2, read-out: Antibacterial spectra, E. coli NIHJ JC-2, tables in the Examples
[12] = P. morganii Eb53, agar dilution method, Table 11, read-out: Antibacterial spectra
[13] = P. morganii Eb53, agar dilution method, table in Example 16
[14] = Table 12, read-out: Protective Effect (ED50) on Infected Mice
[15] = 209P, read-out: Antibacterial spectra, S. aureus 209P, tables in the Examples
[16] = EB53, read-out: Antibacterial spectra
[17] = T7, read-out: Antibacterial spectra
[18] = Staphylococcus aureus, S. aureus 1840, Table 11, read-out: Antibacterial spectra

SMILES | MIC (P. vulgaris IFO 3988; [1]) | MIC (E. coli T-7; [2]) | MIC (K. pneumoniae DT; Table 11) | MIC (K. pneumoniae DT; tables in the Examples) | MIC (E. coli 0-111; [4]) | MIC (S. aureus 209P; [6]) | MIC (S. aureus 1840; [8]) | MIC (S. aureus 1840; [9]) | MIC (E. coli NIHJ JC-2; [10]) | MIC (P. morganii Eb53; [12]) | ED50 (Escherichia coli 0111; Table 13, read-out: ED50) | ED50 (Escherichia coli 0111; Table 14, read-out: ED50) | MIC (P. morganii Eb53; [16]) | further results
O=C(Cc1cccs1)N[C@@H]1C(=O)N2C(C(=O)[O-])=C(C[n+]3ccccc3)CS[C@H]12 [Cephaloridine, reference compound] | 6.25 µg/mL (≈ 15 µM) | > 100 µg/mL | 1.56 µg/mL (≈ 3.75 µM) | 3.12 µg/mL (≈ 7.52 µM) | 1.56 µg/mL (≈ 3.75 µM) | ≤ 0.2 µg/mL | 0.39 µg/mL (≈ 0.939 µM) | 0.39 µg/mL (≈ 0.939 µM) | 3.13 µg/mL (≈ 7.53 µM) | > 100 µg/mL | 1.94 mg/kg | 3.57 mg/kg |  | MIC (P. vulgaris Eb-57; [3]): > 100 µg/mL; MIC (E. coli 0-111; [5]): 3.12 µg/mL (≈ 7.52 µM); MIC (S. aureus 209P; [7]): 0.05 µg/mL (≈ 0.12 µM); MIC (E. coli NIHJ JC-2; [11]): 6.25 µg/mL (≈ 15 µM); Antibacterial spectra (P. morganii Eb53; [13]): > 100 µg/mL; MIC (P. vulgaris Eb-58): 12.5 µg/mL (≈ 30.1 µM); ED50 (Escherichia coli 0111; [14]): 2.81 mg/kg
Cc1nnc(SCC2=C(C(=O)O)N3C(=O)[C@@H](NC(=O)Cn4cnnn4)[C@H]3SC2)s1 [Cephazolin, reference compound] | 6.25 µg/mL (≈ 13.8 µM) | 50 µg/mL (≈ 110 µM) | 1.56 µg/mL (≈ 3.43 µM) | 1.56 µg/mL (≈ 3.43 µM) | 0.78 µg/mL (≈ 1.72 µM) | ≤ 0.2 µg/mL | 0.78 µg/mL (≈ 1.72 µM) | 1.56 µg/mL (≈ 3.43 µM) | 1.56 µg/mL (≈ 3.43 µM) | 100 µg/mL (≈ 220 µM) |  | 3.1 mg/kg |  | MIC (P. vulgaris Eb-57; [3]): 50 µg/mL (≈ 110 µM); MIC (E. coli 0-111; [5]): 1.56 µg/mL (≈ 3.43 µM); MIC (S. aureus 209P; [15]): 0.1 µg/mL (≈ 0.22 µM); MIC (S. aureus 209P; [7]): 0.01 µg/mL (≈ 0.022 µM); MIC (E. coli NIHJ JC-2; [11]): 1.56 µg/mL (≈ 3.43 µM); Antibacterial spectra (P. morganii Eb53; [13]): 100 µg/mL; MIC (P. vulgaris Eb-58): 6.25 µg/mL (≈ 13.8 µM)
CN(C)CCSc1nnc(SCC2=C(C(=O)O)N3C(=O)C(NC(=O)Cc4csc(N)n4)C3SC2)s1 (stereo not shown) [Compound 9] |  | 50 µg/mL (≈ 87.1 µM) | ≤ 0.2 µg/mL |  | 0.39 µg/mL (≈ 0.68 µM) | ≤ 0.2 µg/mL | 0.78 µg/mL (≈ 1.36 µM) |  |  |  |  |  | < 0.2 µg/mL | MIC (P. vulgaris IFO 3988; IFO3988, read-out: Antibacterial spectra): 6.25 µg/mL (≈ 10.9 µM); MIC (E. coli NIHJ JC-2; NIHJJC2, E. coli NIHJ JC-2, Table 11, read-out: Antibacterial spectra): 1.56 µg/mL (≈ 2.72 µM); ED50 (Escherichia coli 0111; [14]): 0.812 mg/kg
Nc1nc(CC(=O)NC2C(=O)N3C(C(=O)O)=C(CSc4nnc(SCCS(=O)(=O)O)s4)CSC23)cs1 (stereo not shown) [Compound 12] | ≤ 0.2 µg/mL | 50 µg/mL (≈ 81.9 µM) | ≤ 0.2 µg/mL |  | ≤ 0.2 µg/mL | 0.39 µg/mL (≈ 0.639 µM) | 1.56 µg/mL (≈ 2.55 µM) |  | 0.78 µg/mL (≈ 1.28 µM) | 25 µg/mL (≈ 40.9 µM) | < 0.625 mg/kg |  |  | 
Nc1nc(CC(=O)NC2C(=O)N3C(C(=O)O)=C(CSc4nnc(SCC(=O)O)s4)CSC23)cs1 (stereo not shown) [Compound 15] | ≤ 0.2 µg/mL | 25 µg/mL (≈ 44.6 µM) | ≤ 0.2 µg/mL |  | ≤ 0.2 µg/mL | 0.78 µg/mL (≈ 1.39 µM) | 1.56 µg/mL (≈ 2.78 µM) |  | 0.78 µg/mL (≈ 1.39 µM) | 3.13 µg/mL (≈ 5.58 µM) | < 0.625 mg/kg |  |  | 
NC(=O)CSc1nnc(SCC2=C(C(=O)[O-])N3C(=O)C(NC(=O)Cc4csc(N)n4)[C@H]3SC2)s1.[Na+] (stereo partly shown) [Compound 16, sodium 7-[2-(2-aminothiazol-4-yl)acetamido]-3-(2-carbamoylmethylthio-1,3,4-thiadiazol-5-yl)thiomethyl-3-cephem-4-carboxylate] | ≤ 0.2 µg/mL |  | ≤ 0.2 µg/mL |  | ≤ 0.2 µg/mL | ≤ 0.2 µg/mL | 0.78 µg/mL |  | 0.39 µg/mL |  | < 0.625 mg/kg |  | 1.56 µg/mL | MIC (E. coli T-7; [17]): 12.5 µg/mL
Nc1nc(CC(=O)NC2C(=O)N3C(C(=O)O)=C(CSc4nnc(NCCO)s4)CSC23)cs1 (stereo not shown) [Compound 17] | 0.39 µg/mL (≈ 0.736 µM) |  | ≤ 0.2 µg/mL |  | ≤ 0.2 µg/mL | 0.39 µg/mL (≈ 0.736 µM) |  |  | 0.39 µg/mL (≈ 0.736 µM) |  | < 0.625 mg/kg |  | 0.78 µg/mL (≈ 1.47 µM) | MIC (E. coli T-7; [17]): 12.5 µg/mL (≈ 23.6 µM); MIC (S. aureus 1840; [18]): 3.13 µg/mL (≈ 5.91 µM)
CN(C)CCNc1nnc(SCC2=C(C(=O)O)N3C(=O)C(NC(=O)Cc4csc(N)n4)C3SC2)s1 (stereo not shown) [Compound 18] | 1.56 µg/mL (≈ 2.8 µM) |  | ≤ 0.2 µg/mL |  | ≤ 0.2 µg/mL | 1.56 µg/mL (≈ 2.8 µM) |  |  | 0.78 µg/mL (≈ 1.4 µM) |  | < 0.625 mg/kg |  | 1.56 µg/mL (≈ 2.8 µM) | MIC (E. coli T-7; [17]): 6.25 µg/mL (≈ 11.2 µM); MIC (S. aureus 1840; [18]): 3.13 µg/mL (≈ 5.62 µM)
Nc1nc(CC(=O)NC2C(=O)N3C(C(=O)O)=C(CSc4nnc(CC(=O)O)s4)CSC23)cs1 (stereo not shown) [Compound 19, disodium 7-[2-(2-aminothiazol-4-yl)acetamido]-3-(2-carboxymethyl-1,3,4-thiadiazol-5-yl)thiomethyl-3-cephem-4-carboxylate] | ≤ 0.2 µg/mL | 25 µg/mL | ≤ 0.2 µg/mL |  | ≤ 0.2 µg/mL | 0.78 µg/mL |  |  | 0.78 µg/mL |  |  |  | 0.78 µg/mL | MIC (S. aureus 1840; [18]): 3.13 µg/mL; ED50 (Escherichia coli 0111; [14]): < 0.625 mg/kg
NC(=O)Cc1nnc(SCC2=C(C(=O)[O-])N3C(=O)C(NC(=O)Cc4csc(N)n4)[C@H]3SC2)s1.[Na+] (stereo partly shown) [Compound 21, sodium 7-[2-(2-aminothiazol-4-yl)acetamido]-3-(2-carbamoylmethyl-1,3,4-thiadiazol-5-yl)thiomethyl-3-cephem-4-carboxylate] | ≤ 0.2 µg/mL |  | ≤ 0.2 µg/mL |  | ≤ 0.2 µg/mL | ≤ 0.2 µg/mL | 1.56 µg/mL |  | 0.39 µg/mL |  |  |  | 0.78 µg/mL | MIC (E. coli T-7; [17]): 25 µg/mL; ED50 (Escherichia coli 0111; [14]): < 0.625 mg/kg
Cn1cnnc1SCC1=C(C(=O)O)N2C(=O)C(NC(=O)Cc3csc(N)n3)C2SC1 (stereo not shown) [Compound 39] |  | 25 µg/mL (≈ 53.5 µM) | 0.1 µg/mL (≈ 0.214 µM) |  | < 0.05 µg/mL | 0.78 µg/mL (≈ 1.67 µM) | 1.56 µg/mL (≈ 3.34 µM) |  | 0.2 µg/mL (≈ 0.428 µM) | 25 µg/mL (≈ 53.5 µM) |  | 0.73 mg/kg |  | 
CC(=O)OCC1=C(C(=O)O)N2C(=O)C(NC(=O)Cc3csc(N)n3)C2SC1 (stereo not shown) [Example 10, sodium 7-[2-(2-aminothiazol-4-yl)acetamido]-3-acetoxymethyl-3-cephem-4-carboxylat] |  |  |  | < 0.78 µg/mL |  |  |  | 1.56 µg/mL |  |  |  |  |  | MIC (P. vulgaris Eb-57; EB57, read-out: Antibacterial spectra): < 0.78 µg/mL; MIC (S. aureus 209P; [15]): < 0.78 µg/mL; MIC (E. coli NIHJ JC-2; NIHJJC2, E. coli NIHJ JC-2, tables in the Examples, read-out: Antibacterial spectra): 1.56 µg/mL
Nc1nc(CC(=O)NC2C(=O)N3C(C(=O)O)=C(CSc4nncs4)CSC23)cs1 (stereo not shown) [Example 13, sodium 7-[2-(2-aminothiazol-4-yl)-acetamido]-3-(1,3,4-thiadiazol-2-yl)thiomethyl-3-cephem-4-carboxylate] |  |  |  | < 0.78 µg/mL |  |  |  | < 0.78 µg/mL |  |  |  | 2.38 mg/kg |  | MIC (E. coli 0-111; [5]): < 0.78 µg/mL; MIC (S. aureus 209P; [15]): < 0.78 µg/mL; MIC (P. vulgaris Eb-58): < 0.78 µg/mL
Cn1nnnc1SCC1=C(C(=O)O)N2C(=O)C(NC(=O)Cc3csc(N)n3)C2SC1 (stereo not shown) [Example 16, sodium 7-[2-(2-aminothiazol-4-yl)acetamido]-3-(1-methyltetrazol-5-yl)thiomethyl-3-cephem-4-carboxylate] |  |  |  | < 0.1 µg/mL |  |  |  | 0.78 µg/mL |  |  |  | 0.89 mg/kg |  | MIC (E. coli 0-111; [5]): 0.2 µg/mL; MIC (S. aureus 209P; [15]): 0.39 µg/mL; MIC (E. coli NIHJ JC-2; [11]): 0.39 µg/mL; MIC (P. morganii Eb53; P. morganii Eb53, agar dilution method, table in Example 16, read-out: Antibacterial spectra): 3.12 µg/mL; MIC (P. vulgaris Eb-58): 0.39 µg/mL
